Data on 18 molecules can be found in ChEMBL document CHEMBL1944562, “Design, synthesis of some new (2-aminothiazol-4-yl)methylester derivatives as possible antimicrobial and antitubercular agents” (2012).

The MIC is the lowest concentration found to suppress growth.

In brackets after ≈: the same amount, converted by molar mass.

This assay deals with Mycobacterium tuberculosis. Put plainly: Antitubercular activity against Multidrug-resistant Mycobacterium tuberculosis after 7 days by resazurin assay. The format is functional. As to conditions: 168 h. (In general: Alamar Blue is a resazurin reagent that responds to reducing activity.)
With `Nc1nc(COC(=O)C2(c3ccc(Cl)cc3)CC2)cs1`, the MIC is more than 50 µg/mL.

`Nc1nc(COC(=O)Cc2cccc(C(F)(F)F)c2)cs1` yielded an MIC of 6.25 µg/mL (≈ 19.8 µM).

`Nc1nc(COC(=O)Cc2ccccc2OC(F)(F)F)cs1` gave an MIC of more than 50 µg/mL.

As to `Nc1nc(COC(=O)c2cc(F)cc(C(F)(F)F)c2)cs1`, the minimal inhibitory concentration (MIC) was more than 50 µg/mL. Molecule `N#CCCc1cccc(C(=O)OCc2csc(N)n2)c1` came in with an MIC of 6.25 µg/mL (≈ 21.8 µM). The molecule `N#Cc1ccccc1C(=O)OCc1csc(N)n1` came in with an MIC of more than 50 µg/mL. On to `Nc1nc(COC(=O)c2cccs2)cs1`, for which the MIC was more than 50 µg/mL. With `Nc1nc(COC(=O)c2cccc([N+](=O)[O-])c2Cl)cs1`, the MIC came out at 6.25 µg/mL (≈ 19.9 µM). On to `Nc1nc(COC(=O)c2c(F)cccc2Cl)cs1`, for which the MIC stood at 6.25 µg/mL (≈ 21.8 µM). `Nc1nc(COC(=O)c2c(F)cc(F)cc2F)cs1` yielded an MIC of 25 µg/mL (≈ 86.7 µM). Molecule `Nc1nc(COC(=O)c2ccc3ccccc3c2)cs1` registered an MIC of more than 50 µg/mL. As to `Nc1nc(COC(=O)c2ccc([N+](=O)[O-])cc2)cs1`, inhibition of growth (MIC) required 1.25 µg/mL (≈ 4.48 µM).

In the case of `Nc1nc(COC(=O)c2c(Cl)cc(Cl)cc2Cl)cs1`, the MIC was more than 50 µg/mL. As to `N#Cc1cccc(C(=O)OCc2csc(N)n2)n1`, the MIC was more than 50 µg/mL.

Turning to `Nc1nc(COC(=O)c2ccc(Br)cc2)cs1`, 2.5 µg/mL (≈ 7.98 µM) was the least that counted as inhibitory (MIC). The molecule `Nc1nc(COC(=O)c2ccccc2[N+](=O)[O-])cs1` registered an MIC of 12.5 µg/mL (≈ 44.8 µM). In turn, `NNC(=O)c1ccncc1` [ISONIAZID] gave an MIC of 12.5 µg/mL (≈ 91.1 µM). In turn, `CO[C@H]1/C=C/O[C@@]2(C)Oc3c(C)c(O)c4c(O)c(c(/C=N/N5CCN(C)CC5)c(O)c4c3C2=O)NC(=O)/C(C)=C\C=C\[C@H](C)[C@H](O)[C@@H](C)[C@@H](O)[C@@H](C)[C@H](OC(C)=O)[C@@H]1C` [RIFAMPIN] gave an MIC of 25 µg/mL (≈ 30.4 µM).
